Laboratory results reported in patent US20250195638A1, “TREATMENT AND PREVENTION OF CONDITIONS ASSOCIATED WITH RESPIRATORY DISEASES” (priority 2020, published 2025).

Test system: Plasmid (pMB57.6)-DNA
Type: binding
Conditions: 0.5 μM

SARS-CoV-2 (2019-nCoV) nucleocapsid recombinant protein [N-protein]
decrease of fluorescence intensity of DNA-DiYO-1 complex: 96.3%
